The results in this text go back to patent US20230072683A1, “PYRIDO-PYRIMIDIN DERIVATIVES AND PHARMACEUTICAL COMPOSITION, FOR USE IN PREVENTING OR TREATING PI3 KINASE RELATED DISEASES, COMPRISING SAME AS ACTIVE INGREDIENT” (BORYUNG PHARMACEUTICAL CO., LTD, priority 2019, published 2023).

The term inhibition denotes the drop in the measured response relative to a control, in per cent.

SMILES strings stand for the structures. Where two headings read alike, the source gives them in different places.

In test [1] the target is PI3K-δ (PI3K(p1108/p857) (h)) (Homo sapiens, UniProt O00329). The test can be described thus: Evaluation of inhibitory activity against PI3K-δ (HTRF kinase assay). Type of test: biochemical. To be noted: for inhibition at 0.01 µM: compound concentration 0.01 μM, read-out: EXP_VALUE(% Inhibition) PI3K-δ 0.01 μM; for inhibition at 0.1 µM: read-out: EXP_VALUE(% Inhibition) PI3K-δ 0.1 μM. In outline: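 HTRF read-out (665/620 nm ratio ×10000) used Eu-labelled anti-GST, GST-tagged GRP1 PH domain and streptavidin-allophycocyanin after EDTA/PIP3 stop.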
PI3K-δ (PI3K(p1108/p857) (h)), sequence (O00329 whole entry, the tested form may be a part): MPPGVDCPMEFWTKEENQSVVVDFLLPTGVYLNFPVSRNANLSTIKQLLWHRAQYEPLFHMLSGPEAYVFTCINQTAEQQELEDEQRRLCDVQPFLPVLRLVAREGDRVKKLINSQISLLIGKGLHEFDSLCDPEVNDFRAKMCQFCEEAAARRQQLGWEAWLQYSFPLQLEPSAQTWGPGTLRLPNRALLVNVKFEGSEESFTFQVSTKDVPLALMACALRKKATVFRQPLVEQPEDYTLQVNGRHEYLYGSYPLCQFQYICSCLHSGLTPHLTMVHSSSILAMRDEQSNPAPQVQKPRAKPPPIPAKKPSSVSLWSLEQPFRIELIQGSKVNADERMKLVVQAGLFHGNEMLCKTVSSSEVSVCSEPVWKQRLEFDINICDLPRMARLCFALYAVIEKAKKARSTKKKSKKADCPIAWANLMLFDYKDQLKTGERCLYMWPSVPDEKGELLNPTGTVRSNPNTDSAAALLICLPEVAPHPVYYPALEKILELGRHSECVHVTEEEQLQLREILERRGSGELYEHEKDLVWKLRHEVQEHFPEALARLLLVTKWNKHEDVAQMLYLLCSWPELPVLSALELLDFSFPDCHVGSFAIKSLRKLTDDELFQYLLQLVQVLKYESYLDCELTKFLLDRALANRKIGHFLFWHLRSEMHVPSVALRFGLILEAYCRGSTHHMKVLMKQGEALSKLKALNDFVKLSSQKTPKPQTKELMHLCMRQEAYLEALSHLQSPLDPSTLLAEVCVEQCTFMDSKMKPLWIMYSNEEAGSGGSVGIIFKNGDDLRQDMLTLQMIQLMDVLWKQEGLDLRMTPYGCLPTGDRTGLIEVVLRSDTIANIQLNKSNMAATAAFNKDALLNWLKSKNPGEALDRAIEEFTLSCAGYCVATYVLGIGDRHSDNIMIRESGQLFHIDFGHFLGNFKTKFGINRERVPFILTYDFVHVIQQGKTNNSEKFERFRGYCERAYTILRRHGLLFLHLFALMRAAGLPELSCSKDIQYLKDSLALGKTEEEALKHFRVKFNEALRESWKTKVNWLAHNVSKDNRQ
PI3K-δ (PI3K(p1108/p857) (h)), sequence (P27986 whole entry partner, the tested form may be a part): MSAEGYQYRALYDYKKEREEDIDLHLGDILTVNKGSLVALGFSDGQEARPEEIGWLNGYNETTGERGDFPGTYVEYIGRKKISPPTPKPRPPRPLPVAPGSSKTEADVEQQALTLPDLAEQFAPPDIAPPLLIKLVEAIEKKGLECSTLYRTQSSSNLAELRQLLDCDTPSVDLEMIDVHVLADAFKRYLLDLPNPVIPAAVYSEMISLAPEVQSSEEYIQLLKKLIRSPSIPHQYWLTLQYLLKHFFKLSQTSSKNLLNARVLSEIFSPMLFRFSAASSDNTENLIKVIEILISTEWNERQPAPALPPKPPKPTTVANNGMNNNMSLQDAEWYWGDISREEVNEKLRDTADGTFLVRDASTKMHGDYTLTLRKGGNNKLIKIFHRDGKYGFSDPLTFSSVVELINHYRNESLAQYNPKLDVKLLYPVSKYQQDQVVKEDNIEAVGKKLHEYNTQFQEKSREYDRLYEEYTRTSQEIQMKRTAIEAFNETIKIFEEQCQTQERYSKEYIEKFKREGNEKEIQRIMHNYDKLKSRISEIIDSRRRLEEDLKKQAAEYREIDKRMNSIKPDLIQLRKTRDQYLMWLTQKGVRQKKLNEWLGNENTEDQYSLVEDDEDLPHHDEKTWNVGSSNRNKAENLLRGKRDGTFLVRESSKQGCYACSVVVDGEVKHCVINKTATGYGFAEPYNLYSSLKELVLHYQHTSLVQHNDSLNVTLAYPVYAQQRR
In general terms: TR-FRET usually uses a lanthanide donor and a delayed reading to cut background.

Another test addresses DNA-PK(h) (Homo sapiens, UniProt P78527). The test can be described thus: Evaluation of inhibitory activity against DNA-PK (HTRF kinase assay, GST-cMyc-p53 substrate). Format: biochemical. The settings on record: for inhibition at 0.01 µM: compound concentration 0.01 μM, read-out: EXP_VALUE(% Inhibition) DNA-PK(h) 0.01 μM; for inhibition at 0.1 µM: read-out: EXP_VALUE(% Inhibition) DNA-PK(h) 0.1 μM. In a few lines: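 p53 Ser15 phosphorylation by human DNA-PK was measured by time-resolved FRET ratio (665/620 nm ×10000) using Eu-labelled anti-phospho-Ser15 and d2 anti-GST antibodies. Substrate GST-cMyc-p53 at 50 μM; Mg/ATP-initiated, 30 min at room temperature, EDTA stop.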

Turning to `C[C@H](Nc1ncnc2[nH]ccc(=O)c12)c1c(Cl)c2cccc(-c3cnc4ccccc4n3)c2c(=O)n1-c1ccccc1` [Example 48, (S)-4-((1-(4-chloro-1-oxo-2-phenyl-8-(quinoxalin-2-yl)-1,2-dihydroisoquinolin-3-yl)ethyl)amino)pyrido[2,3-d]pyrimidin-5(8H)-one], the inhibition at 0.01 µM in test [1] is 7%; at DNA-PK(h), -5%.
Taken in the same sequence, the figures for `C[C@H](Nc1ncnc2[nH]ccc(=O)c12)c1c(Cl)c2cccc(NS(=O)(=O)CC(F)(F)F)c2c(=O)n1-c1ccccc1` [Example 302, (S)—N-(4-chloro-1-oxo-3-(1-((5-oxo-5,8-dihydropyrido[2,3-d]pyrimidin-4-yl)amino)ethyl)-2-phenyl-1,2-dihydroisoquinolin-8-yl)-2,2,2-trifluoroethane-1-sulfonamide] were 16% and 16%.
On to `C[C@H](Nc1ncnc2[nH]ccc(=O)c12)c1c(Cl)c2cccc(-c3ccc(S)cc3)c2c(=O)n1-c1ccccc1` [Example 95, (S)-4-((1-(4-chloro-8-(4-mercaptophenyl)-1-oxo-2-phenyl-1,2-dihydroisoquinolin-3-yl)ethyl)amino)pyrido[2,3-d]pyrimidin-5(8H)-one], for which the inhibition at 0.01 µM in test [1] stood at 3%; at DNA-PK(h), 9%. For the same compound, the inhibition at 0.1 µM is 14% in test [1] (compound concentration 0.1 μM) and 16% at DNA-PK(h) (compound concentration 0.1 μM).
As for `C[C@H](Nc1ncnc2[nH]ccc(=O)c12)c1c(Cl)c2cccc(-c3cnc(S(C)(=N)=O)nc3)c2c(=O)n1-c1ccccc1` (stereo partly drawn) [Example 407, 4-(((1S)-1-(4-chloro-8-(2-(S-methylsulfonimidoyl)pyrimidin-5-yl)-1-oxo-2-phenyl-1,2-dihydroisoquinolin-3-yl)ethyl)amino)pyrido[2,3-d]pyrimidin-5(8H)-one], the inhibition at 0.1 µM in test [1] (compound at 0.1 μM) is 67%; at DNA-PK(h) (compound at 0.1 μM) it was 70%.
`C[C@H](Nc1ncnc2[nH]ccc(=O)c12)c1c(Cl)c2cccc(-c3cnc(OC(C)(C)C)nc3)c2c(=O)n1-c1ccccc1` [Example 424, (S)-4-((1-(8-(2-(tert-butoxy)pyrimidin-5-yl)-4-chloro-1-oxo-2-phenyl-1,2-dihydroisoquinolin-3-yl)ethyl)amino)pyrido[2,3-d]pyrimidin-5(8H)-one]: the inhibition at 0.1 µM in test [1] (compound at 0.1 μM) came to 38%; at DNA-PK(h) (compound at 0.1 μM) it was 56%.
As for `C[C@H](Nc1ncnc2[nH]ccc(=O)c12)c1c(Cl)c2cccc(-c3ccc4cnoc4c3)c2c(=O)n1-c1ccccc1` [Example 24, (S)-4-((1-(8-(benzo[d]isoxazol-6-yl)-4-chloro-1-oxo-2-phenyl-1,2-dihydroisoquinolin-3-yl)ethyl)amino)pyrido[2,3-d]pyrimidin-5(8H)-one], the inhibition at 0.01 µM in test [1] was 61%; at DNA-PK(h), 85%.
For the compound `CC(C)NC(=O)c1cccc2c(Cl)c([C@H](C)Nc3ncnc4[nH]ccc(=O)c34)n(-c3ccccc3)c(=O)c12` [Example 282, (S)-4-chloro-N-isopropyl-1-oxo-3-(1-((5-oxo-5,8-dihydropyrido[2,3-d]pyrimidin-4-yl)amino)ethyl)-2-phenyl-1,2-dihydroisoquinoline-8-carboxamide], the inhibition at 0.01 µM amounted to 79% in test [1] and 14% at DNA-PK(h).
Take `C[C@H](Nc1ncnc2[nH]ccc(=O)c12)c1c(Cl)c2cccc(N3CCc4ccccc4C3)c2c(=O)n1-c1ccccc1` [Example 7, (S)-4′-chloro-3′-(1-((5-oxo-5,8-dihydropyrido[2,3-d]pyrimidin-4-yl)amino)ethyl)-2′-phenyl-3,4-dihydro-1H-(2,8′-biisoquinolin)-1′(2′H)-one]: the inhibition at 0.01 µM in test [1] was determined as 77%; at DNA-PK(h), 26%. The inhibition at 0.1 µM amounted to 108% in test [1] (compound concentration 0.1 μM) and 62% at DNA-PK(h) (compound concentration 0.1 μM).
For `C[C@H](Nc1ncnc2[nH]ccc(=O)c12)c1c(Cl)c2cccc(-c3cnc(C(F)(F)F)nc3)c2c(=O)n1-c1ccccc1` [Example 153, (S)-4-((1-(4-chloro-1-oxo-2-phenyl-8-(2-(trifluoromethyl)pyrimidin-5-yl)-1,2-dihydroisoquinolin-3-yl)ethyl)amino)pyrido[2,3-d]pyrimidin-5(8H)-one], the inhibition at 0.01 µM in test [1] was found to be 77%; at DNA-PK(h), 46%.
On the same counts, the results for `C[C@H](Nc1ncnc2[nH]ccc(=O)c12)c1c(Cl)c2cccc(COCC(C)(C)CO)c2c(=O)n1-c1ccccc1` [Example 359, (S)-4-((1-(4-chloro-8-((3-hydroxy-2,2-dimethylpropoxy)methyl)-1-oxo-2-phenyl-1,2-dihydroisoquinolin-3-yl)ethyl)amino)pyrido[2,3-d]pyrimidin-5(8H)-one] are 46% and 8%.
For the compound `C[C@H](Nc1ncnc2[nH]ccc(=O)c12)c1c(Cl)c2cccc(Sc3ccncc3)c2c(=O)n1-c1ccccc1` [Example 370, (S)-4-((1-(4-chloro-1-oxo-2-phenyl-8-(pyridin-4-ylthio)-1,2-dihydroisoquinolin-3-yl)ethyl)amino)pyrido[2,3-d]pyrimidin-5(8H)-one], the inhibition at 0.01 µM amounted to 69% in test [1] and 39% on DNA-PK(h). In addition, the values for the inhibition at 0.1 µM (in test [1] (compound concentration 0.1 μM); on DNA-PK(h) (compound concentration 0.1 μM)) were 96% and 76%, respectively.
On the same counts, the results for `C[C@H](Nc1ncnc2[nH]ccc(=O)c12)c1c(Cl)c2cccc(-c3ccc(Cl)c(Cl)c3)c2c(=O)n1-c1ccccc1` [Example 71, (S)-4-((1-(4-chloro-8-(3,4-dichlorophenyl)-1-oxo-2-phenyl-1,2-dihydroisoquinolin-3-yl)ethyl)amino)pyrido[2,3-d]pyrimidin-5(8H)-one] are 17%, 16%, 44% and 41%.
For `C[C@H](Nc1ncnc2[nH]ccc(=O)c12)c1c(Cl)c2cccc(-c3cncc(S(C)(=O)=O)c3)c2c(=O)n1-c1ccccc1` [Example 218, (S)-4-((1-(4-chloro-8-(5-(methylsulfonyl)pyridin-3-yl)-1-oxo-2-phenyl-1,2-dihydroisoquinolin-3-yl)ethyl)amino)pyrido[2,3-d]pyrimidin-5(8H)-one], the inhibition at 0.01 µM in test [1] amounted to 99%; at DNA-PK(h), 85%.
Take `Cc1nc2ccc(-c3cccc4c(Cl)c([C@H](C)Nc5ncnc6[nH]ccc(=O)c56)n(-c5ccccc5)c(=O)c34)cc2o1` [Example 22, (S)-4-((1-(4-chloro-8-(2-methylbenzo[d]oxazol-6-yl)-1-oxo-2-phenyl-1,2-dihydroisoquinolin-3-yl)ethyl)amino)pyrido[2,3-d]pyrimidin-5(8H)-one]: the figures for the inhibition at 0.01 µM (in test [1]; on DNA-PK(h)) were 89% and 69%, respectively. Also, the inhibition at 0.1 µM in test [1] (compound concentration 0.1 μM) came to 93%; at DNA-PK(h) (compound concentration 0.1 μM), 97%.
For `COc1cnc(-c2cccc3c(Cl)c([C@H](C)Nc4ncnc5[nH]ccc(=O)c45)n(-c4ccccc4)c(=O)c23)cn1` [Example 221, (S)-4-((1-(4-chloro-8-(5-methoxypyrazin-2-yl)-1-oxo-2-phenyl-1,2-dihydroisoquinolin-3-yl)ethyl)amino)pyrido[2,3-d]pyrimidin-5(8H)-one], the inhibition at 0.01 µM was determined as 67% in test [1] and 27% at DNA-PK(h).
Taken in the same sequence, the figures for `C[C@H](Nc1ncnc2[nH]ccc(=O)c12)c1c(Cl)c2cccc(-c3ccc4ncncc4c3)c2c(=O)n1-c1ccccc1` [Example 32, (S)-4-((1-(4-chloro-1-oxo-2-phenyl-8-(quinazolin-6-yl)-1,2-dihydroisoquinolin-3-yl)ethyl)amino)pyrido[2,3-d]pyrimidin-5(8H)-one] were 96% and 75%.
As to `CCCSc1cccc2c(Cl)c([C@H](C)Nc3ncnc4[nH]ccc(=O)c34)n(-c3ccccc3)c(=O)c12` [Example 372, (S)-4-((1-(4-chloro-1-oxo-2-phenyl-8-(propylthio)-1,2-dihydroisoquinolin-3-yl)ethyl)amino)pyrido[2,3-d]pyrimidin-5(8H)-one], the inhibition at 0.01 µM in test [1] was found to be 3%; at DNA-PK(h), 38%. In addition, the inhibition at 0.1 µM in test [1] (compound concentration 0.1 μM) was found to be 19%; on DNA-PK(h) (compound concentration 0.1 μM), 79%.
On the same counts, the results for `COc1cc(-c2cccc3cc([C@H](C)Nc4ncnc5[nH]ccc(=O)c45)n(-c4ccccc4)c(=O)c23)ccc1Cl` [Example 100, (S)-4-((1-(8-(4-chloro-3-methoxyphenyl)-1-oxo-2-phenyl-1,2-dihydroisoquinolin-3-yl)ethyl)amino)pyrido[2,3-d]pyrimidin-5(8H)-one] are 82%, 17%, 104% and 54%.
`C[C@H](Nc1ncnc2[nH]ccc(=O)c12)c1c(Cl)c2cccc(C(=O)NC(C)(C)CO)c2c(=O)n1-c1ccccc1` [Example 284, (S)-4-chloro-N-(1-hydroxy-2-methylpropan-2-yl)-1-oxo-3-(1-((5-oxo-5,8-dihydropyrido[2,3-d]pyrimidin-4-yl)amino)ethyl)-2-phenyl-1,2-dihydroisoquinoline-8-carboxamide]: the inhibition at 0.01 µM in test [1] stood at 25%; on DNA-PK(h) it was 10%.
